“And” between values parts separate entries of the source, which are not always exact repeats. Identical values can stand only once. Toxic doses and inconclusive results are not listed. The calls were made as follows: active = survival T/C of 150% or more; inactive = T/C below 125% in these data.
System: BDF1 mice, P388 leukemia ip, median survival T/C
Test: NCI In Vivo Anticancer Drug Screen. Data for tumor model P388 Leukemia (intraperitoneal) in B6D2F1 (BDF1) mice
Details: endpoint: median survival time, higher = longer survival
Method in brief: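 T/C = treated-group survival ÷ vehicle-control survival; tumour transplanted into mice before dosing.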

[1] = dose: 100.0 mg/kg/injection, schedule: Q01DX001 (ip), vehicle: saline with Tween-80
[2] = dose: 200.0 mg/kg/injection, schedule: Q01DX001 (ip), vehicle: saline with Tween-80
[3] = dose: 100.0 mg/kg/injection, schedule: Q01DX009 (ip), vehicle: saline
[4] = dose: 100.0 mg/kg/injection, schedule: Q04DX003 (ip), vehicle: saline
[5] = dose: 200.0 mg/kg/injection, schedule: Q01DX009 (ip), vehicle: saline
[6] = dose: 200.0 mg/kg/injection, schedule: Q04DX003 (ip), vehicle: saline
[7] = dose: 50.0 mg/kg/injection, schedule: Q01DX009 (ip), vehicle: saline with Tween-80
[8] = dose: 50.0 mg/kg/injection, schedule: Q04DX003 (ip), vehicle: saline with Tween-80
[9] = dose: 100.0 mg/kg/injection, schedule: Q04DX003 (ip), vehicle: saline with Tween-80
[10] = dose: 200.0 mg/kg/injection, schedule: Q01DX009 (ip), vehicle: saline with Tween-80
[11] = dose: 200.0 mg/kg/injection, schedule: Q04DX003 (ip), vehicle: saline with Tween-80
[12] = dose: 400.0 mg/kg/injection, schedule: Q04DX003 (ip), vehicle: saline with Tween-80
[13] = dose: 50.0 mg/kg/injection, schedule: Q01DX009 (ip), vehicle: saline
[14] = dose: 100.0 mg/kg/injection, schedule: Q04DX003 (ip), vehicle: saline sonified
[15] = dose: 200.0 mg/kg/injection, schedule: Q04DX003 (ip), vehicle: saline sonified
[16] = dose: 400.0 mg/kg/injection, schedule: Q04DX003 (ip), vehicle: saline sonified
[17] = dose: 25.0 mg/kg/injection, schedule: Q01DX009 (ip), vehicle: saline with Tween-80
[18] = dose: 100.0 mg/kg/injection, schedule: Q01DX009 (ip), vehicle: saline with Tween-80
[19] = dose: 6.25 mg/kg/injection, schedule: Q01DX009 (ip), vehicle: saline with Tween-80
[20] = dose: 6.25 mg/kg/injection, schedule: Q01DX009 (ip), vehicle: saline
[21] = dose: 12.5 mg/kg/injection, schedule: Q01DX009 (ip), vehicle: saline

Measured: T/C

Cc1cc(Nc2cccc(Cl)c2)cc(=O)[nH]1
inactive: dose: 50.0 mg/kg/injection, schedule: Q01DX001 (ip), vehicle: saline with Tween-80 113 % of control | [1] 100 % of control | [2] 98 % of control

COC(=O)C(C)NC1=C(Cl)C(=O)C(NC(C)C(=O)OC)=C(Cl)C1=O (configuration not stated)
inactive: dose: 50.0 mg/kg/injection, schedule: Q01DX009 (ip), vehicle: saline + Tween-80 + alcohol 98 % of control | dose: 100.0 mg/kg/injection, schedule: Q01DX009 (ip), vehicle: saline + Tween-80 + alcohol 97 % of control | dose: 200.0 mg/kg/injection, schedule: Q01DX009 (ip), vehicle: saline + Tween-80 + alcohol 101 % of control

C/C1=C/CCCCCC1
inactive: [3] 104 % of control | [4] 95 % of control | [5] 90 % of control | [6] 100 % of control | dose: 400.0 mg/kg/injection, schedule: Q01DX009 (ip), vehicle: saline 113 % of control | dose: 400.0 mg/kg/injection, schedule: Q04DX003 (ip), vehicle: saline 95 % of control

C=CCN(C)/N=N/c1[nH]ncc1C(N)=O
inactive: [7] 104 % of control | [8] 104 % of control | [9] 109 % of control | [10] 87 % of control | [11] 109 % of control

CC(C)Cc1[nH]nc2c1C(=O)C(Nc1ccccc1)=CC2=O
inactive: [9] 99 % of control | [11] 100 % of control | [12] 100 % of control

CC1(C)C/C(=C\c2ccccc2)C(=O)c2ccccc21
inactive: dose: 25.0 mg/kg/injection, schedule: Q01DX009 (ip), vehicle: water 106 % of control | dose: 50.0 mg/kg/injection, schedule: Q01DX009 (ip), vehicle: water 95 % of control | dose: 100.0 mg/kg/injection, schedule: Q01DX009 (ip), vehicle: water 106 % of control | dose: 200.0 mg/kg/injection, schedule: Q01DX009 (ip), vehicle: water 88 % of control | dose: 400.0 mg/kg/injection, schedule: Q01DX009 (ip), vehicle: water 100 % of control

C=C1C(=O)OC2CC3(C)CC(O)C(O)C(=C)C3CC12 (configuration not stated)
inactive: dose: 25.0 mg/kg/injection, schedule: Q01DX009 (ip), vehicle: saline 104 % of control | [13] 104 % of control | [3] 104 % of control

O=C1NC(=O)c2cc([N+](=O)[O-])cc3cccc1c23
inactive: [14] 91 % of control | [15] 95 % of control | [16] 87 % of control

N#Cc1cnc2nc(N)nc(N)c2c1
inactive: [13] 104 % of control | [3] 107 % of control | [4] 108 % of control | [5] 117 % of control | [6] 116 % of control

CCNC(C)(C)C(=O)c1ccc(Cl)s1
inactive: [17] 98 % of control | [7] 91 % of control | [8] 99 % of control | [18] 96 % of control | [9] 86 % of control and 109 % of control | [11] 89 % of control and 104 % of control | [12] 95 % of control and 96 % of control

O=C(C(Br)C(Br)c1ccccc1)N1CCOCC1 (configuration not stated)
inactive: [14] 104 % of control | [15] 100 % of control | [16] 113 % of control

Cc1nc2ccccc2nc1CI
inactive: dose: 2.9 mg/kg/injection, schedule: Q01DX009 (ip), vehicle: saline 110 % of control | dose: 4.5 mg/kg/injection, schedule: Q01DX009 (ip), vehicle: saline 120 % of control | dose: 10.0 mg/kg/injection, schedule: Q04DX003 (ip), vehicle: saline 115 % of control | dose: 17.0 mg/kg/injection, schedule: Q01DX009 (ip), vehicle: saline 100 % of control and 116 % of control | dose: 20.0 mg/kg/injection, schedule: Q04DX003 (ip), vehicle: saline 110 % of control | dose: 26.0 mg/kg/injection, schedule: Q01DX009 (ip), vehicle: saline 110 % of control | dose: 30.0 mg/kg/injection, schedule: Q01DX001 (ip), vehicle: Klucel (hydroxypropylcellulose) (HPC) 88 % of control | dose: 40.0 mg/kg/injection, schedule: Q01DX009 (ip), vehicle: saline 100 % of control and 116 % of control | dose: 40.0 mg/kg/injection, schedule: Q04DX003 (ip), vehicle: saline 110 % of control

CC1CC[N-]CC1.CC1CC[N-]CC1.CC1CC[N-]CC1.CC1CC[N-]CC1.O=C([O-])C(=O)[O-].O=C([O-])C(=O)[O-].[Nb+5].[O-][O-].[O-][O-].[Pt+4]
inactive: dose: 0.39 mg/kg/injection, schedule: Q01DX009 (ip), vehicle: saline 106 % of control | dose: 0.78 mg/kg/injection, schedule: Q01DX009 (ip), vehicle: saline 102 % of control | dose: 1.56 mg/kg/injection, schedule: Q01DX009 (ip), vehicle: saline 115 % of control | dose: 3.12 mg/kg/injection, schedule: Q01DX009 (ip), vehicle: saline 102 % of control

Cc1cccc(NC=O)c1
inactive: [7] 109 % of control | dose: 75.0 mg/kg/injection, schedule: Q01DX009 (ip), vehicle: saline with Tween-80 113 % of control | [9] 115 % of control | dose: 115.0 mg/kg/injection, schedule: Q01DX009 (ip), vehicle: saline with Tween-80 104 % of control | [11] 96 % of control | dose: 225.0 mg/kg/injection, schedule: Q01DX009 (ip), vehicle: saline with Tween-80 109 % of control | dose: 300.0 mg/kg/injection, schedule: Q01DX009 (ip), vehicle: saline with Tween-80 113 % of control | [12] 96 % of control

CCOC(=O)NC1CCC2c3ccccc3C([N+](=O)[O-])(C1)c1ccccc12 (configuration not stated)
inactive: [8] 100 % of control | [9] 104 % of control | [11] 100 % of control

C[C@]12CC[C@@H]3c4ccc(Oc5nc(N6CC6)nc(N6CC6)n5)cc4CC[C@H]3[C@@H]1CCC2=O
inactive: dose: 3.12 mg/kg/injection, schedule: Q01DX009 (ip), vehicle: saline with Tween-80 91 % of control | [19] 100 % of control

CC1(C)C=C(C(N)=O)C(C)(C)N1O
inactive: dose: 100.0 mg/kg/injection, schedule: Q01DX001 (ip), vehicle: Klucel (hydroxypropylcellulose) (HPC) 100 % of control | dose: 200.0 mg/kg/injection, schedule: Q01DX001 (ip), vehicle: Klucel (hydroxypropylcellulose) (HPC) 88 % of control | dose: 400.0 mg/kg/injection, schedule: Q01DX001 (ip), vehicle: Klucel (hydroxypropylcellulose) (HPC) 96 % of control

Nc1cc(N)cc([N+](=O)[O-])c1
inactive: [20] 90 % of control | dose: 6.25 mg/kg/injection, schedule: Q04DX003 (ip), vehicle: saline 100 % of control | [21] 86 % of control | dose: 12.5 mg/kg/injection, schedule: Q04DX003 (ip), vehicle: saline 104 % of control | dose: 25.0 mg/kg/injection, schedule: Q04DX003 (ip), vehicle: saline 100 % of control

NC(=S)NCCO
inactive: dose: 100.0 mg/kg/injection, schedule: Q01DX001 (ip), vehicle: saline 104 % of control | dose: 200.0 mg/kg/injection, schedule: Q01DX001 (ip), vehicle: saline 95 % of control | dose: 400.0 mg/kg/injection, schedule: Q01DX001 (ip), vehicle: saline 100 % of control

CB1NN=C(C)c2ccsc21
inactive: [19] 105 % of control | dose: 12.5 mg/kg/injection, schedule: Q01DX009 (ip), vehicle: saline with Tween-80 91 % of control | [17] 95 % of control

CN1C(=O)N(C)C(=O)C(C)(C2(C)C(=O)N(C)C(=O)N(C)C2=O)C1=O
inactive: [1] 100 % of control | [2] 99 % of control | dose: 400.0 mg/kg/injection, schedule: Q01DX001 (ip), vehicle: saline with Tween-80 90 % of control

CC(O)c1nc(N)nc(N)c1-c1ccc(Cl)cc1 (configuration not stated)
inactive: [1] 106 % of control | [2] 100 % of control

N#CSCc1nc2ccc(Cl)cc2c(-c2ccccc2)[n+]1[O-]
inactive: [7] 100 % of control | [18] 114 % of control | [10] 114 % of control

CC(OC(=O)Nc1ccccc1)C(=O)O (configuration not stated)
inactive: [18] 88 % of control | [10] 92 % of control | dose: 400.0 mg/kg/injection, schedule: Q01DX009 (ip), vehicle: saline with Tween-80 103 % of control

OCCN1CCN(CC/C=C2\c3ccccc3Sc3ccc(Cl)cc32)CC1
inactive: [20] 114 % of control | [21] 114 % of control

c1ccc(P(OC2CCCCC2)OC2CCCCC2)cc1
inactive: [7] 109 % of control | [18] 109 % of control | [10] 110 % of control
